Results from patent publication US8962530B2, “Inflammatory bowel disease therapies” (Regents of the University of Colorado, priority 2007, dated 2015).

Key:
[1] = system: TNBS-induced colitis; experiment: Intestinal permeability, Texas Red labeled LPS, TNBS-colitis model; type: in vivo; conditions: TNBS-colitis mice; 60 mg/kg i.p.; labeled LPS gavage after 20 hours, serum four hours later; compared to vehicle control
Excerpt: The effectiveness of compounds and methods of the present invention on intestinal barrier protection and treatment of inflammatory bowel disease (IBD) in TNBS (2,4,6-trinitrobenzene sulfonic acid)-induced colitis, an established animal model of inflammatory bowel disease, was examined. TNBS-induced colitis was induced in mice using a modification of techniques previously described. (See Morris et al (1989) Gastroenterology 96:795-803; Boirivant et al (1998) J Exp Med 188:1929-1939; Karhausen et al (2004) J Clin Invest 114:1098-1106.) Mice were shaved on the abdomen (causing total depletion of hair and microlesions) and were then sensitized to subsequent treatment by epicutaneous application of 1% TNBS (Sigma-Aldrich) in 100% ethanol on day minus 7. Seven days later, on day 0, animals were sedated with a 2.5% Tribromoethanol solution in phosphate-buffered saline (14 μl/g body weight), followed by intrarectal administration of a 2.5% TNBS solution in 50% ethanol (5 μl/g body weight). Administration of the 2.5% TNBS solution was carried out using an epidural catheter ([…] Plus Epidural Catheter, Arrow International), which was inserted approximately 6 cm ab ano followed by release of the TNBS solution. […] Four hours later, changes in intestinal permeability were determined by measurement of serum Texas Red labeled LPS levels.

[2] = system: TNBS-induced colitis; experiment: Histological analysis of colon sections in TNBS-colitis model; type: in vivo; conditions: TNBS-colitis mice; 40 mg/kg i.p. on day minus 1, day 0, day 1; day three; compared to vehicle-control treated TNBS-colitis animals
Excerpt: The effectiveness of compounds and methods of the present invention on intestinal barrier protection and treatment of inflammatory bowel disease (IBD) in TNBS (2,4,6-trinitrobenzene sulfonic acid)-induced colitis, an established animal model of inflammatory bowel disease, was examined. TNBS-induced colitis was induced in mice using a modification of techniques previously described. (See Morris et al (1989) Gastroenterology 96:795-803; Boirivant et al (1998) J Exp Med 188:1929-1939; Karhausen et al (2004) J Clin Invest 114:1098-1106.) Mice were shaved on the abdomen (causing total depletion of hair and microlesions) and were then sensitized to subsequent treatment by epicutaneous application of 1% TNBS (Sigma-Aldrich) in 100% ethanol on day minus 7. Seven days later, on day 0, animals were sedated with a 2.5% Tribromoethanol solution in phosphate-buffered saline (14 μl/g body weight), followed by intrarectal administration of a 2.5% TNBS solution in 50% ethanol (5 μl/g body weight). Administration of the 2.5% TNBS solution was carried out using an epidural catheter ([…] Plus Epidural Catheter, Arrow International), which was inserted approximately 6 cm ab ano followed by release of the TNBS solution. To ensure the continuance of the TNBS solution in the colon, mice were suspended in a vertical position for at least 5 minutes following administration. Vehicle control animals received a corresponding volume of 50% ethanol solution alone. Unless otherwise indicated, compounds of the invention were administered to animals intraperitoneally (i.p.) as a solution. Animals were dosed with compound (40 mg/kg/day or 20 mg/kg/day) on day minus 1, day 0, and day 1, or exclusively on day 0 and day 1, by i.p. injection. On day 0, TNBS treatment was performed on animals 4 hours after injection of compound. The effect of methods and compounds of the present invention on structural changes of the colon associated with inflammatory bowel disease was studied using an established animal model of inflammatory bowel disease (described above in Example 1). […]

## O=C(O)CNC(=O)c1ncc2cc(Sc3ccccc3)ccc2c1O [Compound A, [(4-Hydroxy-7-phenylsulfanyl-isoquinoline-3-carbonyl)-amino]-acetic acid]
[1]
  serum Texas Red labeled LPS levels (intestinal permeability): lower levels of serum Texas Red labeled LPS
[2]
  inflammatory infiltrate in colon sections: reduction in inflammatory infiltrate
  tissue architecture in colon sections: overall general preservation of tissue architecture
  villous blunting in colon sections: reduction in villous blunting
